Experimental data: patent publication US20240287062A1, “NAPHTHYRIDONE COMPOUNDS FOR INHIBITION OF RAF KINASES AND/OR BCR-ABL TYROSINE KINASES” (Enliven Inc., priority 2021, published 2024)

How the values were obtained:
PDGFRα = PDGFRα (Homo sapiens (Human), UniProt P16234); assay: Luminescence-based PDGFRα kinase assay (Km ATP), ADP-Glo; assay type: biochemical; conditions: compound at 100 nM concentration
Protocol: Kinase activity of PDGFRα was measured using the ADP-Glo system (Promega). Compounds were diluted in DMSO at 100 μM. 20 nL of compound or DMSO only (high control, HC) were added to a 384-well plate (OptiPlate-384, PerkinElmer) using an Echo550 liquid handler (Labcyte). 15 μL of kinase solution (10 mM MgCl2, 0.01% Brij-35, 2 mM DTT, 0.05% BSA, 1 mM EGTA, 50 mM HEPES pH 7.5, and 13.3 nM PDGFRα [Carna Biosciences]) were added to each well of the 384-well plate containing the compounds. No enzyme control wells were included (low control, LC). The plate was incubated at room temperature for 30 minutes. 5 μL of a second solution containing 10 mM MgCl2, 0.01% Brij-35, 2 mM DTT, 0.05% BSA, 1 mM EGTA, 50 mM HEPES pH 7.5, 0.8 μg/ml Poly(Glu-Tyr) (Sigma, Cat No 97105-00-5), and 120 μM ATP were added to each well to start the kinase reaction. The plate was incubated for 90 minutes at room temperature. 20 μL of ADP-Glo reagent (Promega) were then added to each well and the plate was incubated for 40 minutes at room temperature. […] During this step, ADP was converted to ATP, a substrate for luciferase, to produce luminescence signal. Luminescence was measured on an Envision plate reader (Perkin Elmer). Luminescence signal positively correlates with kinase activity. The percent inhibition of kinase activity was calculated as follows: percent inhibition=100×(LumHC−LumSample)/(LumHC−LumLC). […]

ABL1 (Y253H) = ABL1 (Y253H) (Homo sapiens (Human), UniProt P00519, Y253H); assay: Radioactivity-based ABL kinase assay; assay type: biochemical; conditions: 100 μM 33P-ATP
Protocol: (§1) The following kinase assay was based on Anastassiadis et al (2011) Nat Biotech, 29:1039-1045. Briefly, ABL kinase substrate (ABLtide: EAIYAAPFAKKK; Genscript) was freshly prepared in reaction buffer (20 mM HEPES pH 7.5, 10 mM MgCl2, 1 mM EGTA, 0.02% Brij-35, 0.02 mg/ml BSA, 0.1 mM Na3VO4, 2 mM DTT, and 1% DMSO) to a final substrate concentration of 20 μM. ABL wild type and ABL mutant kinases were added to the substrate solution and mixed to the final enzyme concentrations shown in Table 3 below.
(§2) Serial dilutions of compounds were prepared in 100% DMSO Compounds or DMSO only (vehicle control) were then added to the kinase reaction mixture and incubated for 20 minutes at room temperature. 100 μM ^33P-ATP (specific activity 10 μCi/μl) was then added to the kinase reaction mixture to initiate the kinase reaction. This mixture was incubated for 2 hours at room temperature. Radioactivity was then measured by radioisotope filter-binding. Kinase activity data were expressed as the percent remaining kinase activity in test samples compared to vehicle control reactions. IC50 values and curve fits were obtained using a nonlinear regression model with a sigmoidal dose response (Prism GraphPad Software).

ABL1 (Q252H) = ABL1 (Q252H) (Homo sapiens (Human), UniProt P00519, Q252H); assay: Radioactivity-based ABL kinase assay; assay type: biochemical; conditions: 100 μM 33P-ATP
Protocol: as §1, §2

ABL1 = ABL1 (Homo sapiens (Human), UniProt P00519); assay: Radioactivity-based ABL kinase assay; assay type: biochemical; conditions: 100 μM 33P-ATP
Protocol: as §1, §2

ABL1 (F317I) = ABL1 (F317I) (Homo sapiens (Human), UniProt P00519, F317I); assay: Radioactivity-based ABL kinase assay; assay type: biochemical; conditions: 100 μM 33P-ATP
Protocol: as §1, §2

ABL1 (E255K) = ABL1 (E255K) (Homo sapiens (Human), UniProt P00519, E255K); assay: Radioactivity-based ABL kinase assay; assay type: biochemical; conditions: 100 μM 33P-ATP
Protocol: as §1, §2

ABL1 (Y253F) = ABL1 (Y253F) (Homo sapiens (Human), UniProt P00519, Y253F); assay: Radioactivity-based ABL kinase assay; assay type: biochemical; conditions: 100 μM 33P-ATP
Protocol: as §1, §2

ABL1 (G250E) = ABL1 (G250E) (Homo sapiens (Human), UniProt P00519, G250E); assay: Radioactivity-based ABL kinase assay; assay type: biochemical; conditions: 100 μM 33P-ATP
Protocol: as §1, §2

ABL1 (M351T) = ABL1 (M351T) (Homo sapiens (Human), UniProt P00519, M351T); assay: Radioactivity-based ABL kinase assay; assay type: biochemical; conditions: 100 μM 33P-ATP
Protocol: as §1, §2

ABL1 (H396P) = ABL1 (H396P) (Homo sapiens (Human), UniProt P00519, H396P); assay: Radioactivity-based ABL kinase assay; assay type: biochemical; conditions: 100 μM 33P-ATP
Protocol: as §1, §2

ABL1 (F317L) = ABL1 (F317L) (Homo sapiens (Human), UniProt P00519, F317L); assay: Radioactivity-based ABL kinase assay; assay type: biochemical; conditions: 100 μM 33P-ATP
Protocol: as §1, §2

ABL1 (V299L) = ABL1 (V299L) (Homo sapiens (Human), UniProt P00519, V299L); assay: Radioactivity-based ABL kinase assay; assay type: biochemical; conditions: 100 μM 33P-ATP
Protocol: as §1, §2

ABL1 (E255V) = ABL1 (E255V) (Homo sapiens (Human), UniProt P00519, E255V); assay: Radioactivity-based ABL kinase assay; assay type: biochemical; conditions: 100 μM 33P-ATP
Protocol: as §1, §2

ABL1 (T315I) = ABL1 (T315I) (Homo sapiens (Human), UniProt P00519, T315I); assay: Radioactivity-based ABL kinase assay; assay type: biochemical; conditions: 100 μM 33P-ATP
Protocol: as §1, §2

K562 cells = assay: K562 cell proliferation assay (CellTiter-Glo); assay type: cell-based; conditions: Homo sapiens; K562 cell line, 72 hours, cell viability
Protocol: K562 cells, cultured in Iscove's Modified Dulbecco's Media (IMDM) supplemented with 10% FBS, were harvested at 50-80% confluency and plated at 2,000 cells per well in 384-well tissue culture plates. A subset of wells contained media only (low control, LC). Compounds were serially diluted in DMSO. 40 nL of compound or DMSO only (high control, HC) were added to each well using an Echo 550 liquid handler (Labcyte). The plates were placed in a 37° C. incubator with 5% CO2 for 72 hours. Cell viability was measured using a CellTiter-Glo luminescent cell viability assay (Promega), which allows for relative quantification of metabolically active cells by luminescence-based measurements of intracellular ATP concentrations. Briefly, plates were removed from the incubator and equilibrated for 15 minutes at room temperature prior to the addition of 40 μL of CellTiter-Glo reagent. Plates were then incubated for 30 minutes at room temperature. Luminescence was measured using an EnSpire plate reader (Perkin Elmer). As noted above, luminescence values from wells with DMSO only or media without cells were used as high and low controls (HC and LC), respectively. Normalized percent viability was calculated as follows: percent viability=100×(LumSample−LumLC)/(LumHC−LumLC). IC50 values were calculated using the XLFit software.

PDGFRα, sequence (P16234 24-1089): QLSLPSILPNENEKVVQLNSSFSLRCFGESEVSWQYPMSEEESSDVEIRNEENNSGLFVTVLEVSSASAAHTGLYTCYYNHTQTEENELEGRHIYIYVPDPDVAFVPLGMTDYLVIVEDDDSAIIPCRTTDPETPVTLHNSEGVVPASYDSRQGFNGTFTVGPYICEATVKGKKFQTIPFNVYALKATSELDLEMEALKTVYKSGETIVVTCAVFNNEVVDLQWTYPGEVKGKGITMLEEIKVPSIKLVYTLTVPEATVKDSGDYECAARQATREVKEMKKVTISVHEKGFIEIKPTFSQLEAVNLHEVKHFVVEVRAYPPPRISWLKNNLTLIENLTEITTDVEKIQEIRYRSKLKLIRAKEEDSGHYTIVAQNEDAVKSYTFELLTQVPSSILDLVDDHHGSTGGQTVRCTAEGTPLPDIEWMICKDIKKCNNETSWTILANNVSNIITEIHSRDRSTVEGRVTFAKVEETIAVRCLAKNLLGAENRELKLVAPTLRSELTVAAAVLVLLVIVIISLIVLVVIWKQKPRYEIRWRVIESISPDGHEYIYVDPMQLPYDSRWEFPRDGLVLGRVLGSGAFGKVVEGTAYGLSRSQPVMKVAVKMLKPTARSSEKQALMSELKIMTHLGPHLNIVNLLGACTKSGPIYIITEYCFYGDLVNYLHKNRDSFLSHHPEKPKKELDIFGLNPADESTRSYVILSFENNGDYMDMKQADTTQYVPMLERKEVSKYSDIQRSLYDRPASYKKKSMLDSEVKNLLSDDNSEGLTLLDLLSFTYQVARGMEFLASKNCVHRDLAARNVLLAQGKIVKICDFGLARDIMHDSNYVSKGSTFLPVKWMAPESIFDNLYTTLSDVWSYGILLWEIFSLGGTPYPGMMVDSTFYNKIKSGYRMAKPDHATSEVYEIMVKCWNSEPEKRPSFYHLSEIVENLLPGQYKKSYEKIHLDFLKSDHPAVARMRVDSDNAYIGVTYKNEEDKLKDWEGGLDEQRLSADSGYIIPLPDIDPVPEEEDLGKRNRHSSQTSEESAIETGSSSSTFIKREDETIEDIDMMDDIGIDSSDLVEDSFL

| SMILES | inhibition at 0.1 µM (PDGFRα) [%] | IC50 (ABL1 (Y253H)) [nM] | IC50 (ABL1 (Q252H)) [nM] | IC50 (ABL1) [nM] | IC50 (ABL1 (F317I)) [nM] | IC50 (ABL1 (E255K)) [nM] | IC50 (ABL1 (Y253F)) [nM] | IC50 (ABL1 (G250E)) [nM] | IC50 (ABL1 (M351T)) [nM] | IC50 (ABL1 (H396P)) [nM] | IC50 (ABL1 (F317L)) [nM] | IC50 (ABL1 (V299L)) [nM] | IC50 (ABL1 (E255V)) [nM] | IC50 (ABL1 (T315I)) [µM] | IC50 (K562 cells) [nM] |
| --- | --- | --- | --- | --- | --- | --- | --- | --- | --- | --- | --- | --- | --- | --- | --- |
| Cc1c(F)cncc1-c1cc2cnc(NC(=O)[C@@H]3C[C@@H]3F)cc2n(C)c1=O [Compound 28, (1S,2S)-2-fluoro-N-[3-(5-fluoro-4-methylpyridin-3-yl)-1-methyl-2-oxo-1,6-naphthyridin-7-yl]cyclopropane-1-carboxamide] | 15 | 3.6 | 1.7 | 1.2 | 114 | 3.4 | 0.53 | 3.7 | 4.5 | 1.4 | 107 | 0.19 | 1.4 | > 0.5 | 47 |
| Cc1c(F)cncc1-c1cc2cnc(NC(=O)C3CC3)cc2n(C)c1=O [Compound 2, N-[3-(5-fluoro-4-methylpyridin-3-yl)-1-methyl-2-oxo-1,6-naphthyridin-7-yl]cyclopropanecarboxamide] | 33 | 0.93 | 1.2 | 0.61 | 47 | 2 | < 0.51 | 1.5 | 1.5 | 1.2 | 17 | < 0.51 | 0.61 | 4.4 | 28 |
